Assay results reported in ChEMBL document CHEMBL1201862, “PubChem BioAssay data set” (2004).
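Five concentrations, 48 hours, 96-well plates. GI50 = concentration required for 50% inhibition of growth.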 Calls of active or inactive are those of the source. Rule as the data show it: active = GI50 up to about 1.1 µM and inactive = higher.

Experiments:
Assay in all cases: growth of human tumour cells (NCI), 48 h
NCI-H522 = tested on: NCI-H522
NCI/ADR-RES = tested on: NCI/ADR-RES
SN12C = tested on: SN12C
SNB-19 = tested on: SNB-19
DU-145 = tested on: DU-145
SNB-75 = tested on: SNB-75
SK-MEL-28 = tested on: SK-MEL-28
Hs-578T = tested on: Hs-578T
CCRF-CEM = tested on: CCRF-CEM
SK-MEL-5 = tested on: SK-MEL-5
CAKI-1 = tested on: CAKI-1
KM12 = tested on: KM12
OVCAR-5 = tested on: OVCAR-5
OVCAR-4 = tested on: OVCAR-4
A498 = tested on: A498
NCI-H460 = tested on: NCI-H460
M14 = tested on: M14
OVCAR-8 = tested on: OVCAR-8
A549 = tested on: A549
HOP-92 = tested on: HOP-92
SW-620 = tested on: SW-620
UO-31 = tested on: UO-31
TK-10 = tested on: TK-10
COLO 205 = tested on: COLO 205
SK-MEL-2 = tested on: SK-MEL-2
UACC-257 = tested on: UACC-257
PC-3 = tested on: PC-3
MCF7 = tested on: MCF7
IGROV-1 = tested on: IGROV-1
EKVX = tested on: EKVX
BT-549 = tested on: BT-549
Malme-3M = tested on: Malme-3M
HCC 2998 = tested on: HCC 2998
U-251 = tested on: U-251
RPMI-8226 = tested on: RPMI-8226
OVCAR-3 = tested on: OVCAR-3
SF-539 = tested on: SF-539
LOX IMVI = tested on: LOX IMVI
MOLT-4 = tested on: MOLT-4
SR = tested on: SR
HL-60 = tested on: HL-60
SF-295 = tested on: SF-295
SF-268 = tested on: SF-268
HCT-116 = tested on: HCT-116
MDA-MB-435 = tested on: MDA-MB-435
MDA-MB-231 = tested on: MDA-MB-231
HCT-15 = tested on: HCT-15
UACC-62 = tested on: UACC-62
RXF 393 = tested on: RXF 393
K562 = tested on: K562
T47D = tested on: T47D
ACHN = tested on: ACHN
786-0 = tested on: 786-0
MDA-N = tested on: MDA-N
NCI-H226 = tested on: NCI-H226
NCI-H23 = tested on: NCI-H23
SK-OV-3 = tested on: SK-OV-3
HT-29 = tested on: HT-29
HOP-62 = tested on: HOP-62

Measured: GI50

Cc1c(C)c2c(c(N)c1C#N)C(=O)N(OS(=O)(=O)c1ccccc1)C2=O
inactive: NCI-H522 17.1 µM | NCI/ADR-RES 22.6 µM | SN12C 23.7 µM | SNB-19 > 100 µM | DU-145 11.6 µM | SNB-75 32.5 µM | SK-MEL-28 24.5 µM | Hs-578T 34.8 µM | CCRF-CEM 21.5 µM | SK-MEL-5 44.9 µM | CAKI-1 20.8 µM | KM12 64.9 µM | OVCAR-5 > 100 µM | OVCAR-4 21.2 µM | A498 > 100 µM | NCI-H460 37.5 µM | M14 19.5 µM | OVCAR-8 17.8 µM | A549 15.6 µM | HOP-92 17 µM | SW-620 20.8 µM | UO-31 33.7 µM | TK-10 18 µM | COLO 205 21.8 µM | SK-MEL-2 49 µM | UACC-257 24.4 µM | PC-3 35.6 µM | MCF7 38 µM | IGROV-1 18.5 µM | EKVX 18.9 µM | BT-549 19.9 µM | Malme-3M 16.1 µM | HCC 2998 38.7 µM | U-251 20.5 µM | RPMI-8226 15.1 µM | OVCAR-3 22.2 µM | SF-539 16.6 µM | LOX IMVI 26.2 µM | MOLT-4 21.4 µM | SR 27 µM | HL-60 30.1 µM | SF-295 > 100 µM | SF-268 95.1 µM | HCT-116 4.42 µM | MDA-MB-435 19 µM | MDA-MB-231 52.8 µM | UACC-62 23.9 µM | RXF 393 15.2 µM | K562 16.7 µM | T47D 2.55 µM | ACHN 18.5 µM | 786-0 16.4 µM | MDA-N 29.8 µM | NCI-H226 18.5 µM
20.9 µM: HCT-15

CC(=O)OC1OC(c2ccoc2)C[C@@]12C1CCC3O[C@]3(C)[C@]1(C)C[C@H](OC(C)=O)[C@H]2C (some centres undefined)
> 75 µM: HCT-15
inactive: NCI-H522 > 75 µM | NCI/ADR-RES > 75 µM | SN12C > 75 µM | SNB-19 > 75 µM | DU-145 > 75 µM | SNB-75 > 75 µM | SK-MEL-28 > 75 µM | Hs-578T > 75 µM | CCRF-CEM 38.1 µM | SK-MEL-5 > 75 µM | CAKI-1 > 75 µM | KM12 > 75 µM | OVCAR-5 > 75 µM | OVCAR-4 59.2 µM | A498 > 75 µM | NCI-H460 58.3 µM | NCI-H23 74.1 µM | M14 > 75 µM | OVCAR-8 > 75 µM | A549 > 75 µM | HOP-92 72.8 µM | SW-620 > 75 µM | UO-31 70.8 µM | TK-10 > 75 µM | COLO 205 > 75 µM | SK-MEL-2 > 75 µM | UACC-257 > 75 µM | PC-3 44.7 µM | MCF7 44.9 µM | IGROV-1 > 75 µM | EKVX > 75 µM | BT-549 > 75 µM | HCC 2998 > 75 µM | U-251 > 75 µM | RPMI-8226 44 µM | OVCAR-3 > 75 µM | SF-539 > 75 µM | LOX IMVI > 75 µM | MOLT-4 > 75 µM | SR > 75 µM | SK-OV-3 > 75 µM | HL-60 42.9 µM | SF-295 > 75 µM | SF-268 > 75 µM | HCT-116 > 75 µM | MDA-MB-435 > 75 µM | MDA-MB-231 45.9 µM | UACC-62 51.3 µM | RXF 393 > 75 µM | K562 > 75 µM | T47D 35.2 µM | ACHN > 75 µM | 786-0 > 75 µM | HT-29 > 75 µM | MDA-N > 75 µM | NCI-H226 > 75 µM

N#CC(C#N)=C1C(=Cc2ccc(OCCCCCCCCCCSSCCCCCCCCCCOc3ccc(C=C4C(=C(C#N)C#N)c5ccccc5C4=C(C#N)C#N)cc3)cc2)C(=C(C#N)C#N)c2ccccc21
inactive: NCI-H522 17.8 µM | NCI/ADR-RES 19.3 µM | DU-145 22 µM | SNB-75 25.7 µM | SK-MEL-28 21.6 µM | Hs-578T 20.4 µM | HOP-62 22.5 µM | SK-MEL-5 22.1 µM | CAKI-1 24.7 µM | KM12 25.4 µM | OVCAR-5 20.8 µM | OVCAR-4 21.8 µM | A498 18.7 µM | NCI-H460 22.1 µM | NCI-H23 17.3 µM | M14 20.3 µM | OVCAR-8 31 µM | A549 15.5 µM | HOP-92 17.7 µM | SW-620 23.3 µM | UO-31 18.2 µM | TK-10 47.4 µM | SK-MEL-2 25.8 µM | UACC-257 39.5 µM | PC-3 20.8 µM | MCF7 20.8 µM | IGROV-1 42 µM | EKVX 20.9 µM | BT-549 17 µM | HCC 2998 14.7 µM | U-251 19.5 µM | RPMI-8226 39.2 µM | OVCAR-3 29.7 µM | SF-539 16.1 µM | LOX IMVI 18.5 µM | MOLT-4 23.6 µM | SR 19.2 µM | SF-295 20.1 µM | SF-268 19.5 µM | HCT-116 17.1 µM | MDA-MB-435 38.7 µM | MDA-MB-231 28.6 µM | RXF 393 22.6 µM | K562 23.7 µM | T47D 31.6 µM | ACHN 36.7 µM | 786-0 21.8 µM | HT-29 19.2 µM | MDA-N 34.8 µM | NCI-H226 24 µM
16.7 µM: HCT-15
active: HL-60 0.0465 µM
